≈ marks a conversion by molar mass, not a printed value. Read-outs that look alike come from different tables or passages of the source.
Assays:
[1] = system: M. abscessus subspecies massilense; experiment: MIC, Table 9; format: cell-based, Mycobacterium abscessus; conditions: for MIC: M. abscessus subspecies massilense
M. chelonae = experiment: MIC, Table 9; format: cell-based, Mycobacterium chelonae
M. fortuitum = experiment: MIC, Table 9; format: cell-based, Mycobacterium fortuitum
[2] = Plasma protein binding assay (rapid equilibrium dialysis); format: in vitro ADME
Procedure, shortened: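 Rapid equilibrium dialysis ran 4 h at 37° C (300 RPM) with compound-spiked plasma (10,000 ng/mL) on one side and PBS on the other. Each side was then mixed 1:1 […] to equalise matrix before LC-MS/MS quantification.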

[3] = system: M. abscessus subsp. abscessus K21; experiment: MIC assay, clinical isolate K21; format: cell-based, Mycobacterium abscessus; conditions: 90% inhibition of bacterial growth
[4] = system: M. abscessus subspecies abscessus; experiment: MIC, Table 9; format: cell-based, Mycobacterium abscessus; conditions: for MIC: M. abscessus subspecies abscessus
[5] = Mouse pharmacokinetics studies; format: in vivo, CD-1 mice
Procedure, shortened: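 Plasma from K2EDTA-collected blood analysed by LC-MS/MS with multiple-reaction monitoring in electrospray positive mode. Parameters derived by non-compartmental analysis.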

Mycobacterium abscessus = experiment: MIC against Mycobacterium abscessus (strain not given); format: cell-based
THP-1 = experiment: Fold-killing in THP-1; format: cell-based; conditions: expressed in log-10 scale
CYP3A4 = conditions: human
[6] = female, CD-1, mouse, in vivo, 10 mg/kg
[7] = female, CD-1, mouse, in vivo, iv, 10 mg/kg

CO[C@H]1/C=C/O[C@@]2(C)Oc3c(C)c(O)c4c(c3C2=O)C2=NC3(CCN(CC(C)C)CC3)NC2=C(NC(=O)/C(C)=C/C=C/[C@H](C)[C@H](O)[C@@H](C)[C@@H](O)[C@@H](C)[C@H](OC(=O)c2cccnc2)[C@@H]1C)C4=O [5m, 25-O-(3-pyridinecarbonyl)-25-O-desacetyrifabutin]
fold improvement ([1]; 5m vs rifabutin, subspecies massilense): 8 | MIC [1]: 0.04 µM (≈ 0.0364 µg/mL) | MIC (M. chelonae): 0.01 µM (≈ 0.0091 µg/mL) | fold improvement (M. chelonae; 5m vs rifabutin): 58 | MIC (M. fortuitum): 0.01 µM (≈ 0.0091 µg/mL) | fold improvement (M. fortuitum; 5m vs rifabutin): 60 | fold increase in the unbound fraction in plasma ([2]; plasma): at least 100 fold | Mab K21 MIC [3]: 0.033 µM | fold improvement ([4]; 5m vs rifabutin, subspecies abscessus): 30 | MIC [4]: 0.05 µM (≈ 0.0455 µg/mL) | CL ([5]; mouse, in vivo, 10 mg/kg): 3.0 mL/min/kg | Vd ([5]; mouse, in vivo, 10 mg/kg): 1.6 L/kg | fAUC/MIC, times higher than rifabutin ([5]; mouse, in vivo, po, 10 mg/kg): 128

CO[C@H]1/C=C/O[C@@]2(C)Oc3c(C)c(O)c4c(c3C2=O)C2=NC3(CCN(CC(C)C)CC3)NC2=C(NC(=O)/C(C)=C\C=C\[C@H](C)[C@H](O)[C@@H](C)[C@@H](O)[C@@H](C)[C@H](OC(C)=O)[C@@H]1C)C4=O [rifabutin, reference compound]
MIC ([1]; Mycobacteroides abscessus): 0.3 µM (≈ 0.254 µg/mL) | MIC (M. chelonae; Mycobacteroides chelonae): 0.58 µM (≈ 0.491 µg/mL) | MIC (M. fortuitum; Mycolicibacterium fortuitum): 0.6 µM (≈ 0.508 µg/mL) | MIC (Mycobacterium abscessus; Mycobacteroides abscessus, 72 h, Table 22, read-out: MICMab): 1.15 µM (≈ 0.974 µg/mL) | MIC (Mycobacterium abscessus; Mycobacteroides abscessus, Table 13, read-out: Mab MIC): 1.1 µM (≈ 0.932 µg/mL) | MIC (Mycobacterium abscessus; Mycobacteroides abscessus, against Mycobacterium abscessus, Table 19, read-out: MIC): 1.1 µM (≈ 0.932 µg/mL) | MIC (Mycobacterium abscessus; against Mycobacterium abscessus, Table 20, read-out: MIC): 1.1 µM (≈ 0.932 µg/mL) | Fold-killing in THP-1 (THP-1): 2.3 | ƒu ([2]; 4 h, 10000 ng/mL): 4.5% | fraction unbound at 4 h, 10000 ng/mL ([2]; plasma): 0.0376 | plasma unbound (ƒu, %) ([2]; plasma, 4 h, 10000 ng/mL): 3.8% | unbound fraction ([2]; plasma, 4 h, 10000 ng/mL): 3.76% | MIC ([4]; Mycobacteroides abscessus): 1.5 µM (≈ 1.27 µg/mL) | CYP3A4 gene fold-induction at 10 μM (CYP3A4): 40.0 | ƒAUC/MIC ([5]; Table 18): 0.22 | ƒAUC/MIC ([5]; Table 20): 0.22 | 25-O-desacetyl rifabutin 6 detected in mouse plasma ([5]; female, CD-1, mouse, in vivo): 0.4% | F ([5]; female, CD-1, mouse, in vivo): 70% | Vd ([5]; female, CD-1, mouse, in vivo): 3.5 L/kg | clearance ([5]; female, CD-1, mouse, in vivo): 10.3 mL/min/kg | Vd [5, 6]: 3.51 L/kg | clearance [5, 6]: 10.3 mL/min/kg | C-25 deacylation i.v. ([5]; female, CD-1, mouse, in vivo, iv): 0.4% | Vd [5, 7]: 3.51 L/kg | clearance [5, 7]: 10.3 mL/min/kg | C-25 deacylation p.o. ([5]; female, CD-1, mouse, in vivo, po): 0.4% | AUC ([5]; female, CD-1, mouse, in vivo, po, 10 mg/kg): 11500 ng·h/mL | half-life ([5]; female, mouse, in vivo, CD-1 mice, 10 mg/kg): 4 h | fAUC/MIC ([5]; p.o. doses of 10 mg/kg): 0.22

From patent US20260109712A1, “RIFAMYCINS FOR NONTUBERCULOUS MYCOBACTERIA” (priority 2022, published 2026)
